Measurements as given in ChEMBL document CHEMBL5257035, “Nucleoside Derived Antibiotics to Fight Microbial Drug Resistance: New Utilities for an Established Class of Drugs?” (J Med Chem, 2016).
≈ marks a conversion by molar mass, not a printed value.

Assays:
[1] = test system: Coccidioides immitis; experiment: Antifungal activity against Coccidioides immitis assessed as reduction in fungal growth; type: functional
[2] = test system: Cryptococcus neoformans; experiment: Antifungal activity against Cryptococcus neoformans assessed as reduction in fungal growth; type: functional
[3] = test system: Mycolicibacterium smegmatis; experiment: Antibacterial activity against Mycobacterium smegmatis SANK75075 assessed as bacterial growth inhibition; type: functional
[4] = test system: Mycobacterium avium; experiment: Antimycobacterial activity against Mycobacterium avium assessed as microbial growth reduction; type: functional
[5] = test system: Mycobacterium kansasii; experiment: Antimycobacterial activity against Mycobacterium kansasii assessed as microbial growth reduction; type: functional
[6] = test system: Mycobacterium intracellulare; experiment: Antimycobacterial activity against Mycobacterium intracellulare assessed as microbial growth reduction; type: functional
[7] = test system: Pseudomonas aeruginosa; experiment: Antimicrobial activity against Pseudomonas aeruginosa M35 assessed as reduction in microbial growth; type: functional
[8] = test system: Cryptococcus neoformans; experiment: Antifungal activity against Cryptococcus neoformans assessed as fungal growth inhibition measured after 24 hrs by micro broth dilution method; type: functional
[9] = test system: Aspergillus fumigatus; experiment: Antifungal activity against Aspergillus fumigatus assessed as fungal growth inhibition; type: functional
[10] = test system: Candida albicans; experiment: Antifungal activity against Candida albicans assessed as fungal growth inhibition measured after 24 hrs by micro broth dilution method; type: functional
[11] = Cytotoxicity against human HepG2 cells assessed as reduction in cell viability incubated for 72 hrs by MTT assay; type: toxicity, cell-based
[12] = test system: Enterococcus faecalis; experiment: Antimicrobial activity against Enterococcus faecalis 10785 assessed as reduction in microbial growth by broth microdilution method; type: functional
[13] = test system: Staphylococcus aureus; experiment: Antimicrobial activity against methicillin-resistant Staphylococcus aureus assessed as reduction in microbial growth by broth microdilution method; type: functional
[14] = Inhibition of Bacterial MraY; parameters: species or system Bacteria
[15] = test system: Escherichia coli; experiment: Antibacterial activity against Escherichia coli ATCC 25922 assessed as bacterial growth inhibition measured after 48 hrs by microdilution method; type: functional
[16] = target: T1, Phospho-N-acetylmuramoyl-pentapeptide-transferase (Escherichia coli K-12, UniProt P0A6W3); experiment: Inhibition of MraY in Escherichia coli K12
T1 sequence (P0A6W3 whole entry): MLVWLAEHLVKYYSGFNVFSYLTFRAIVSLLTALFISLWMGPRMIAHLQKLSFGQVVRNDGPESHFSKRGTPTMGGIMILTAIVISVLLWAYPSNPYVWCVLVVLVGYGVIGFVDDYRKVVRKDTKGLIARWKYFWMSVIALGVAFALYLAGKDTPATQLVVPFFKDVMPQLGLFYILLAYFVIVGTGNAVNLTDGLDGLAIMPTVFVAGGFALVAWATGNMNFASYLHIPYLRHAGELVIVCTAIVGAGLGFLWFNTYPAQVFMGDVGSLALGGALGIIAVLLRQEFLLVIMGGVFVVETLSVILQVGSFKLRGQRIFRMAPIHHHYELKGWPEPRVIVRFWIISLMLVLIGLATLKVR

[17] = test system: Pseudomonas aeruginosa; experiment: Antibacterial activity against Pseudomonas aeruginosa assessed as bacterial growth inhibition; type: functional

For N[C@@H](Cc1ccccc1)C(=O)N[C@H](C(=O)O)[C@@H]1C[C@@H](O)[C@@H](O)[C@H](n2ccc(=O)[nH]c2=O)O1, the MIC [1] was 0.25 µg/mL (≈ 0.557 µM) and the MIC [2] was 0.25 µg/mL (≈ 0.557 µM).
For CCCCCCCCCNC(=O)C1=C[C@@H](O)[C@@H](O)[C@H](O[C@@H](C(N)=O)[C@H]2O[C@@H](n3ccc(=O)[nH]c3=O)[C@H](O)[C@@H]2OC)O1, the MIC [3] was 12.5 µg/mL (≈ 21.4 µM).
With CCCCCCCCCC(=O)O[C@@H]1[C@H](OC)[C@@H]([C@@H](O[C@@H]2OC(C(=O)N[C@H]3CCC[C@@H](C)NC3=O)=C[C@@H](O)[C@H]2O)C(N)=O)O[C@H]1n1ccc(=O)[nH]c1=O the MIC [4] was 0.063 µg/mL (≈ 0.0854 µM), the MIC [5] was 0.063 µg/mL (≈ 0.0854 µM) and the MIC [6] was 0.063 µg/mL (≈ 0.0854 µM).
Work on CSCC[C@H](NC(=O)N[C@@H](Cc1cccc(O)c1)C(=O)O)C(=O)NC(CN(C)C(=O)C1Cc2ccc(O)cc2CN1)C(=O)N/C=C1/C[C@@H](O)[C@H](N2CCC(=O)NC2=O)O1 (some centres undefined) yielded an MIC [7] of 6.25 µg/mL.
For C=CCSC[C@H]1O[C@@H](n2cnc3c([N+](=O)[O-])cccc32)[C@H](O)[C@@H]1O, the MIC [8] was 0.19 µM (≈ 0.0668 µg/mL), the MIC [9] was 0.19 µM (≈ 0.0668 µg/mL) and the MIC [10] was 0.19 µM (≈ 0.0668 µg/mL).
In the case of CCCCCCCCCCCCCCC[C@@H](NC(=O)[C@@H](NC(=O)N[C@H](C(=O)O)C(C)C)[C@@H]1CCNC(=N)N1)C(=O)NCCCNC(C(=O)O)[C@H](O[C@@H]1O[C@H](CN)[C@@H](O)[C@H]1O)[C@H]1O[C@@H](n2ccc(=O)[nH]c2=O)[C@H](O)[C@@H]1O (some centres undefined), the IC50 at 72 h [11] is reported as over 100 µg/mL, the MIC [12] is reported as 0.25 µg/mL and the MIC [13] is reported as 2 µg/mL. It also gave an IC50 [14] of 740 nM.
CCCCCCCCCCCCCNC[C@@H](O[C@@H]1O[C@H](CN)[C@@H](O)[C@H]1O)[C@H]1O[C@@H](n2ccc(=O)[nH]c2=O)[C@H](O)[C@@H]1O gave an MIC [15] of 2.5 µg/mL (≈ 4.26 µM) and an IC50 [16] of 330 nM.
Compound CCCCNC(=O)C1=C[C@@H](O)[C@@H](O)[C@H](O[C@@H](C(N)=O)[C@H]2O[C@@H](n3ccc(=O)[nH]c3=O)[C@H](O)[C@@H]2OC)O1 has an MIC [3] of 12.5 µg/mL (≈ 24.3 µM).
COc1ccc(Cn2c(=O)ccn([C@@H]3O[C@H]([C@H](O)[C@H](NCCCNC(=O)[C@@H](N)[C@@H](O)C(C)C)C(=O)OC(C)(C)C)[C@@H](O[Si](C)(C)C(C)(C)C)[C@H]3O[Si](C)(C)C(C)(C)C)c2=O)cc1 gave an MIC [12] of 4 µg/mL and an MIC [13] of 4 µg/mL.
Compound CCCCCCCCCCCCCC(=O)O[C@@H]1[C@H](OC)[C@@H]([C@@H](O[C@@H]2OC(C(=O)N[C@H]3CCC[C@@H](C)NC3=O)=C[C@@H](O)[C@H]2O)C(N)=O)O[C@H]1n1ccc(=O)[nH]c1=O has an MIC [4] of 0.063 µg/mL (≈ 0.0794 µM), an MIC [5] of 0.063 µg/mL (≈ 0.0794 µM) and an MIC [6] of 0.063 µg/mL (≈ 0.0794 µM).
For CSCC[C@H](NC(=O)N[C@@H](Cc1cccc(O)c1)C(=O)O)C(=O)NC(CN(C)C(=O)C1Cc2ccc(O)cc2C(C)N1)C(=O)N/C=C1/C[C@@H](O)[C@H](N2CCC(=O)NC2=O)O1 (some centres undefined), the MIC [7] was 6.25 µg/mL.
For CCCCCCCCCCCNC[C@@H](O[C@@H]1O[C@H](CN)[C@@H](O)[C@H]1O)[C@H]1O[C@@H](n2ccc(=O)[nH]c2=O)[C@H](O)[C@@H]1O, the MIC [15] was 2.5 µg/mL (≈ 4.47 µM) and the IC50 [16] was 330 nM.
For CCC(C)CCCCCCC/C(C)=C/C(C)=C/C(=O)NCC(=O)N[C@H]1[C@H](OP(=O)(O)OC(C(=O)O)C(C[C@H]2O[C@@H](n3ccc(=O)[nH]c3=O)[C@H](O)[C@@H]2O)O[C@@H]2O[C@H](CO)[C@@H](O)[C@H](O)[C@H]2O)O[C@H](CO)[C@@H](O)[C@@H]1O (some centres undefined), the MIC [12] was 50 µg/mL, the MIC [13] was 100 µg/mL and the IC50 [14] was 1100 nM.
For CSCC[C@H](N)C(=O)N[C@H](C(=O)O)[C@@H]1C[C@@H](O)[C@@H](O)[C@H](n2ccc(=O)[nH]c2=O)O1, the MIC [1] was 0.25 µg/mL (≈ 0.578 µM) and the MIC [2] was 0.25 µg/mL (≈ 0.578 µM).
For CSCC[C@H](NC(=O)NC(Cc1cccc(O)c1)C(=O)O)C(=O)NC(CN(C)C(=O)[C@@H](N)C(Cc1cccc(O)c1)NCC(=O)O)C(=O)N/C=C1/C[C@@H](O)[C@H](N2CCC(=O)NC2=O)O1 (some centres undefined), the MIC [17] was 1.5 µg/mL (≈ 1.64 µM).
Work on CCOC(=O)CCSC[C@H]1O[C@@H](n2cnc3c(N)cccc32)[C@H](O)[C@@H]1O yielded an MIC [8] of 0.19 µM (≈ 0.0725 µg/mL), an MIC [9] of 0.19 µM (≈ 0.0725 µg/mL) and an MIC [10] of 0.19 µM (≈ 0.0725 µg/mL).
In the case of CO[C@H]1[C@@H](O)[C@H](n2ccc(=O)[nH]c2=O)O[C@@H]1[C@@H](O[C@@H]1OC(C(=O)NCCCSC)=C[C@@H](O)[C@H]1O)C(N)=O, the MIC [3] is reported as 12.5 µg/mL (≈ 22.9 µM).
Work on CCCCCCCCCCCCCCC(=O)O[C@@H]1[C@H](OC)[C@@H]([C@@H](O[C@@H]2OC(C(=O)N[C@H]3CCC[C@@H](C)NC3=O)=C[C@@H](O)[C@H]2O)C(N)=O)O[C@H]1n1ccc(=O)[nH]c1=O yielded an MIC [4] of 0.063 µg/mL (≈ 0.078 µM), an MIC [5] of 0.063 µg/mL (≈ 0.078 µM) and an MIC [6] of 0.063 µg/mL (≈ 0.078 µM).
CCCCCCCCCCCNC(=O)C1=C[C@@H](O)[C@@H](O)[C@H](O[C@@H](C(N)=O)[C@H]2O[C@@H](n3ccc(=O)[nH]c3=O)[C@H](O)[C@@H]2OC)O1 gave an MIC [3] of 12.5 µg/mL (≈ 20.4 µM).
